row,SMILES,melting point [°C]
1,CCCOCCOC(=O)C1=C(C)NC(C)=C([N+](=O)[O-])C1c1cccc([N+](=O)[O-])c1 (stereo not drawn),161
2,CC(C)OP(=O)(COCCOc1nc(N)nc(N)c1C=O)OC(C)C,225 to 227
3,O=C(O)c1ccc(Br)cc1Cc1ccccc1,137
4,Clc1nccnc1NCCOc1ccccc1,51 to 53
5,O=Cc1ccc(-c2ccc(-c3ccsc3)s2)s1,155 to 157
6,CCN1CCN(C(=O)NC(C(=O)O)c2cc(OC(C)=O)c(OC(C)=O)cc2F)C(=O)C1=O (stereo not drawn),177 to 179
7,COc1ccc(OC)c(S(=O)(=O)N2CCC(N3N=C(c4ccc(OC)c(OC)c4)CCC3=O)CC2)c1,184 to 185
8,Cc1cc(NC(=O)C(CS)Cc2ccccc2)cc(C(=O)O)c1 (stereo not drawn),177 to 178
9,Nc1nc(NCC(c2ccccc2)c2ccccc2)c2ncn(C3OC(CO)C(O)C3O)c2n1 (stereo not drawn),134 to 137
10,CCOC(=O)c1ccc(/C=C(\CC)c2ccc3c(c2)C(C)(C)CCC3(C)C)cc1,82 to 83
11,Cc1ccc2c(c1)C=Cc1cc(C)ccc1C2c1cn(-c2ccnc(NCC(=O)Nc3nc(CC(=O)O)cs3)n2)c(=O)[nH]c1=O,223
12,N#Cc1ccccc1CN1CCC(=O)C(C(c2ccc(F)cc2)c2ccc(F)cc2)C1 (stereo not drawn),83 to 84
13,CC1C(=O)N(C2CCCC2)C(=S)N1c1ccc(Oc2ccccc2)cc1 (stereo not drawn),99
14,Cc1cccc(C)c1NC(=O)CCCc1cccnc1,98 to 99
15,CN(C)C(=O)c1ccc(NC(=O)C(C)(C)C)cc1C(F)(F)F,199 to 200
16,Nc1c([N+](=O)[O-])sc2ccc(C(F)(F)F)cc12,198 to 201
17,COc1ccc(S(=O)(=O)N(CCNS(C)(=O)=O)c2ccc(Cl)cc2Cc2c(F)cccc2F)cc1OC,133
18,Fc1ccc(-c2cn3c(n2)SCC3)cc1,116 to 118
19,CCN(CCO)Cc1cc(Nc2nc(Nc3ccc4c(c3OC)CCC(N3CCOCC3)CC4)ncc2Cl)ccc1F (stereo not drawn),81 to 83
20,CCN(C)C(=O)c1ccc(N2CCN(Cc3cnc4c(c3)NC(=O)[C@@H]3CCCN43)CC2)cc1,91.9
21,CCN(CC)C(=O)Oc1cc(-c2ccccc2)nc2ccc([N+](=O)[O-])cc12,40
22,CC1(CN2CCC(=O)CC2)Cn2cc([N+](=O)[O-])nc2O1 (stereo not drawn),124 to 126
23,COC(=O)C1OC(c2ccccc2)OCC1(C)C (stereo not drawn),86.5 to 88
24,Cc1cc(F)ccc1-c1ccc(S(=O)(=O)N2c3ccccc3CC2C(=O)NCCOc2ccc(CC(=O)O)cc2)cc1 (stereo not drawn),99 to 105
25,Nc1cc(C(c2c(F)ccc(F)c2F)S(=O)(=O)CCC(F)(F)F)c(Cl)cn1 (stereo not drawn),155 to 159

row,SMILES,melting point [°C]
1,Cc1cccc2c1NC(=O)C(CCCN1CCN(c3ccc(F)cc3)CC1)S2 (stereo not drawn),116 to 117
2,CCc1n[nH]c(CCOc2ccc(S(C)(=O)=O)cc2)c1Oc1cc(C#N)cc(C#N)c1,88 to 90
3,O=C1CCCc2cc(O)cc(O)c21,209 to 210
4,COc1ccc(-n2nc(C(F)(F)F)cc2-c2ccc(S(C)(=O)=O)cc2)cc1F,178 to 180
5,CC(C)(C)C1=CC(=CC#N)C=C(C(C)(C)C)C1=O,110 to 111
6,Cc1ccc2c(c1)Cn1nnnc1C(=O)N2,244 to 247
7,c1ccc(C(OC2CCN(CCCCNc3ccc4ncnn4n3)CC2)c2ccccc2)cc1,102 to 104
8,COc1cc(-c2nc(NC(=O)c3c(C)c4cc(C)ccc4n3CC(=O)O)sc2CCC2CCCCC2)c(OC)cc1C,150 to 152
9,COC(=O)c1ccc(F)c(Br)c1,29 to 30
10,COC(=O)[C@@H]1C[C@H](N=[N+]=[N-])C(=O)[C@H]2[C@@]1(C)CC[C@H]1C(=O)O[C@H](c3ccoc3)C[C@]21C,200 to 203
11,CCCCCCCCCCCC(C(=O)NN)C(C(=O)Nc1c(OC)cc(OC)cc1OC)c1ccccc1 (stereo not drawn),175 to 180
12,CCOC(=O)/C=C(C)/C=C/C1=C(Br)CCC1,85 to 86
13,COC(=O)C(C)(C)S(=O)(=O)N1CCC(c2ccc(-n3ccc(OC)n3)c(C)c2)CC1,109 to 110
14,COc1ccc2nc3ccc(OC)cc3c(Nc3cccc(COC(=O)NC(C)C)c3)c2c1,148 to 149
15,C=CCCCOc1ccc2c(=O)cc(-c3ccccc3)oc2c1,104 to 106
16,CCCc1c(OCCCSc2ccc(C(=O)CCCCC(=O)O)cc2)ccc(C(C)=O)c1O,130 to 132
17,Cc1cc2n[nH]c(=O)n2nc1-c1ccc(C#N)cc1,> 300
18,CCN(CC)C(=O)Nc1cc(-c2c(-c3cccc(C)c3)nc3cccnn23)ccn1,166 to 167
19,"O=C(c1ccccc1)c1cccc(NC(=O)c2ccn3c2CSC3c2cccnc2)c1 (single isomer, unassigned; (+))",109
20,CC(O)=C(C#N)CC(=O)Nc1ccc(NC(=O)CBr)cc1,> 210
21,COC(=O)CC(=O)NC(C)(C)CC(C)(C)C,74 to 75
22,COc1cc2c(cc1OC)C(c1c[nH]cn1)CCC2 (stereo not drawn),140
23,CC(=O)SCC(Cc1ccccc1)C(=O)Nc1cc(C)cc(C(=O)O)c1 (stereo not drawn),160 to 161
24,CCOC(=O)c1sc(Oc2ccccc2)nc1C(F)(F)F,52 to 54
25,N#Cc1cc([N+](=O)[O-])cc(C#N)c1O,228 to 231

row,SMILES,melting point [°C]
1,CCCCCCCNC(=O)c1ccccc1CN1C(=O)C2(COc3cc4c(cc32)CCO4)c2ccccc21 (stereo not drawn),196 to 198
2,O=C1CC2Sc3nc(=O)c4ccccc4n3C2(c2ccc(Cl)cc2)O1 (stereo not drawn),215 to 220
3,N#CSc1nc(I)ncc1Cl,183 to 186
4,CN(C)CCCNCc1ccc(-c2cc3ncnc(Nc4ccc5[nH]ccc5c4)c3s2)cc1,148 to 160
5,Cc1cc2ncnn2nc1OCCC(C)(C)CCS(N)(=O)=O,143 to 144
6,O=C(CBr)c1coc2ccccc2c1=O,140 to 145
7,COC(=O)C(C)c1ccc2c(c1)Cc1cc(OC)ccc1-2 (stereo not drawn),98.5 to 100
8,COc1ccc(Nc2ncc3cc4ccccc4n3n2)cc1,197 to 200
9,COc1ccc(C2(C#Cc3ccccn3)CCC3(CC2)OCCO3)cc1OC1CCCC1,41 to 42
10,CCCC(=O)N(C)SN(C(=O)NC(=O)c1c(F)cccc1F)c1ccc(Oc2ccc(C(F)(F)F)cc2Cl)cc1F,136 to 138
11,C=Cc1c(F)c(N2CC3CN(C)CC3C2)c(F)c2c1c(=O)c(C(=O)O)cn2C1CC1 (stereo not drawn),156 to 157
12,CC(N)C(=O)N1C(C(=O)O)CC2CCCCC21 (stereo not drawn),163 to 165
13,O=C1NC(Cc2ccc(OCc3ccccc3)cn2)C(=O)NC1Cc1ccc(F)cc1 (stereo not drawn),220 to 222
14,NNc1ccc(C(=O)O)cn1,292 to 293
15,O=C(N[C@H](Cc1ccccc1)C(=O)O)OCc1ccc2oc(Cc3ccccc3)cc2c1,201 to 204
16,Cc1ccc(COc2ccc(C=C3CCCCC3=O)cc2)cc1,148 to 149
17,O=c1[nH]c(=O)n([C@H]2CO[C@H](CO)O2)cc1/C=C/Cl,101 to 102
18,Cc1cc(C(=O)O)c(Cl)c([N+](=O)[O-])c1C,160 to 163
19,O=C(N[C@H]1CCN(C(=O)c2cc(C(F)(F)F)cc(C(F)(F)F)c2)[C@H](Cc2ccc(Cl)cc2)C1)c1cc(=O)c2cc(F)ccc2o1,215 to 218
20,CCS(=O)(=O)NNC(=O)NNS(=O)(=O)CC,195
21,Cc1cc(Cn2cncn2)cc2c1Cc1c(-c3ccsc3)n[nH]c1-2,255 to 257
22,CCOC(=O)OC1=C(c2c(C)cc(C)cc2C)C(=O)N(O)C12CCN(OC)CC2,154 to 155
23,COC(=O)C(Cl)=C(C)N,68 to 70
24,O=C(c1ccc(F)cc1)C1(c2ccccc2)CCN(Cc2ccccc2)CC1,148
25,Cc1c(CC(=O)O)oc2ccc(Cc3ccccc3)cc12,149 to 150

row,SMILES,melting point [°C]
1,N#CC12COc3cc(Cl)ccc3C1=NN(C(=O)Nc1ccc(C(F)(F)F)cc1)C2 (stereo not drawn),227 to 229
2,COc1ccc2nc3cc(OC)c(=O)c(Cl)c-3sc2c1,264
3,Fc1cccc2c1CN(C1=NCCO1)C2,125 to 129
4,O=C(C=Cc1ccccc1)c1ccc(N2CCN(c3ccncc3)CC2)cc1,208 to 210
5,Nc1nc(Cl)c2ncn(C3C=CC(O)C3)c2n1 (stereo not drawn),160 to 162
6,Cc1cccc(Cc2ccc(-c3cnn4c(O)ncnc34)cc2)c1,271 to 278
7,C(=Cc1cc2cc3ccccc3cc2s1)c1ccccc1,305 to 307
8,COc1ccc(CC(NC(=O)OC(C)(C)C)C(=O)O)cc1 (stereo not drawn),94 to 96
9,CN1Cc2c(c3cc(CCN4CCN(c5nsc6ccccc56)CC4)ccc3[nH]c2=O)C1,205 to 207
10,COCc1ccc(O)cc1,79 to 80
11,COc1ccccc1N1CCN(C(=O)[C@@H](Cc2cccnc2)NC(=O)OC(C)(C)C)CC1,142
12,COC(=O)N=C(NC(=O)OC)Nc1ccc(S(=O)CC(C)C)cc1NC(=O)CS(C)=O (stereo not drawn),149 to 150
13,CCCC1=C(C#N)C(c2cccc3nsnc23)c2c[nH]nc2N1 (stereo not drawn),195
14,Cc1cc(C2=NN(c3nccs3)[C@H](C)Cc3cc4c(cc32)OCO4)ccc1[N+](=O)[O-],138 to 142
15,CN(C(=O)OC(C)(C)C)c1cc(Oc2ccc(-c3nnn(C(c4ccccc4)(c4ccccc4)c4ccccc4)n3)cc2)ccc1N,192 to 193
16,CCCCc1ccc(NC(=O)CCc2ccccc2)c(=O)n1CC(=O)O,132 to 134
17,CSc1cc2ccccc2cc1C=Cc1cc2ccccc2cc1SC,195 to 196
18,CCCn1nc2c(N)nc3ccccc3c2c1NCC,193 to 194
19,COc1cc(NS(=O)(=O)c2ccc3c(ccn3C)c2)cc(OC)c1OC,188 to 189
20,O=Cc1cc([N+](=O)[O-])cc(O)c1O,226 to 228
21,O=C(O)c1cccc(OCCCc2cc(-c3ccc(C(F)(F)F)cc3)no2)c1,133 to 134
22,COc1ccc(-c2nc(N)c(C#N)nc2-c2ccc(=O)n(C(C)C)c2)cc1,244
23,COC(=O)c1c(OC(C)C)c(Br)c(Br)n1C,42 to 45
